The text below walks through data of ChEMBL document CHEMBL1121748, “Antimycotic imidazoles. 5. Synthesis and antimycotic properties of 1-[[2-aryl-4-(arylalkyl)-1,3-dioxolan-2-yl]methyl]-1H-imidazoles” (1981).

Test [1] relates to Microsporum canis. As to the kind of experiment: Antifungal activity against Microsporum canis. It is filed as functional.
Test [2] relates to Streptococcus pyogenes. The test can be described thus: Antibacterial activity against Streptococcus pyogenes. It is filed as functional.
Test [3] deals with Mucor. The test can be described thus: Antifungal activity against Mucor species. It is filed as functional.
Test [4] is described as follows: Ratio of animals cured to that of animals infected, tested in vivo for antifungal activity against vaginal candidosis in rat; 0/2. Note: test concentration or dose not given here.
In test [5] the test system is Saprolegnia. The test can be described thus: Antifungal activity against Saprolegnia species. It is filed as functional.
For test [6], the system named is Trichophyton benhamiae. The test can be described thus: Antifungal activity against Trichophyton mentagrophytes. It is filed as functional, trychophyton mentagrophytes.
The subject of test [7] is Trichophyton rubrum. As to the kind of experiment: Antifungal activity against Trichophyton rubrum. It is filed as functional.
Test [8] concerns Candida tropicalis. The test can be described thus: Antifungal activity against Candida tropicalis. It is filed as functional.
The subject of test [9] is Phialophora verrucosa. As to the kind of experiment: Antifungal activity against Phialophora verrucosa. It is filed as functional.
For test [10], the system named is Sporothrix schenckii. As to the kind of experiment: Antifungal activity against Sporothrix schenck ii. It is filed as functional.
The subject of test [11] is Erysipelothrix rhusiopathiae. The test can be described thus: Antibacterial activity against Erysipelothrix insidiosa. It is filed as functional.
For test [12], the system named is Candida albicans. The test can be described thus: Antifungal activity against Candida albicans. It is filed as functional.
Test [13] is described as follows: Ratio of animals cured to that of animals infected, tested in vivo for antifungal activity against cutaneous candidosis in guinea pig; 0/2. Note: test concentration or dose not given here. It is filed as functional.
For test [14], the system named is Cryptococcus neoformans. The test can be described thus: Antifungal activity against Cryptococcus neoformans. It is filed as functional.
The test system of test [15] is Staphylococcus haemolyticus. As to the kind of experiment: Antibacterial against Staphylococcus hemolyticus. It is filed as functional.
Test [16] deals with Aspergillus fumigatus. The test can be described thus: Antifungal activity against Aspergillus fumigatus. It is filed as functional.

In the case of `Clc1ccc(C2COC(Cn3ccnc3)(c3ccc(Br)cc3)O2)cc1` (stereo unspecified), the Inhibition in test [1] was under 1 µg/mL; in test [2] it was 1 µg/mL; in [3], over 100 µg/mL; in test [5], 100 µg/mL; in [6] it was under 1 µg/mL; in test [7], under 1 µg/mL. Besides, the Inhibition in test [8] was 100 µg/mL; in test [9] it was 100 µg/mL; in [10] it was 10 µg/mL; in test [11], 1 µg/mL; in test [12] it was over 100 µg/mL; in test [14], 100 µg/mL. Besides, the figures for the Inhibition in test [15] and in test [16] were 100 µg/mL and 10 µg/mL, respectively. Besides, the Ratio in test [4] and in test [13] was 0 in each case.

As for `Clc1ccc(C2COC(Cn3ccnc3)(c3ccccc3Cl)O2)c(Cl)c1` (stereo unspecified), the Inhibition in test [1] was under 1 µg/mL; in [2], under 1 µg/mL; in [3] it was over 100 µg/mL; in test [5], 10 µg/mL; in test [6] it was under 1 µg/mL; in test [7] it was under 1 µg/mL. In addition, the Inhibition in test [8] is over 100 µg/mL; in test [9], 100 µg/mL; in test [10], under 1 µg/mL; in test [11] it was 1 µg/mL; in test [12], over 100 µg/mL; in test [14] it was under 1 µg/mL. Moreover, the values for the Inhibition in test [15] and in [16] were 10 µg/mL and under 1 µg/mL, respectively. Further, the Ratio in test [4] was 0.

Turning to `Clc1ccc(C2(Cn3ccnc3)OCC(Cc3ccc(Br)cc3)O2)c(Cl)c1` (stereo unspecified), the Inhibition in test [1] was under 1 µg/mL; in [2], under 1 µg/mL; in test [3], under 1 µg/mL; in [5], 100 µg/mL; in test [6], under 1 µg/mL; in [7], under 1 µg/mL. Further, the Inhibition in test [8] was over 100 µg/mL; in test [9] it was 100 µg/mL; in [10] it was 10 µg/mL; in test [11], under 1 µg/mL; in test [12], 10 µg/mL; in test [14] it was under 1 µg/mL. Besides, the Inhibition in test [15] and in [16] was 10 µg/mL throughout. The Ratio in test [4] was 0.

Consider `Brc1ccc(C2COC(Cn3ccnc3)(c3ccc(Br)cc3)O2)cc1` (stereo unspecified), for which the Inhibition in test [1] is under 1 µg/mL; in [2], under 1 µg/mL; in [3], 10 µg/mL; in test [5], 100 µg/mL; in test [6], under 1 µg/mL; in [7], under 1 µg/mL. In addition, the Inhibition in test [8] was 100 µg/mL; in [9] it was 100 µg/mL; in test [10] it was 10 µg/mL; in [11], under 1 µg/mL; in [12], over 100 µg/mL; in [14] it was under 1 µg/mL. In addition, the Inhibition was 10 µg/mL in test [15] and under 1 µg/mL in test [16]. Also, the Ratio in test [4] and in [13] was 0 throughout.

For `Clc1ccc(C2(Cn3ccnc3)OCC(c3ccc(Cl)cc3Cl)O2)cc1` (stereo unspecified), the Inhibition is 10 µg/mL in test [1]; under 1 µg/mL in test [2]; 100 µg/mL in test [3]; 100 µg/mL in [5]; under 1 µg/mL in [6]; under 1 µg/mL in test [7]. In addition, the Inhibition was over 100 µg/mL in test [8]; 100 µg/mL in [9]; 10 µg/mL in test [10]; 1 µg/mL in test [11]; 100 µg/mL in test [12]; 10 µg/mL in test [14]. Further, the Inhibition in [15] was 10 µg/mL; in [16], 100 µg/mL. Also, in test [4], the Ratio is listed as 0.

As to `Cc1ccc(C2(Cn3ccnc3)OCC(c3ccc(Br)cc3)O2)cc1` (stereo unspecified), the Inhibition is under 1 µg/mL in test [1]; under 1 µg/mL in test [2]; over 100 µg/mL in test [3]; 10 µg/mL in test [5]; under 1 µg/mL in test [6]; under 1 µg/mL in test [7]. In addition, the Inhibition in test [8] was over 100 µg/mL; in test [9], over 100 µg/mL; in [10], over 100 µg/mL; in test [11] it was under 1 µg/mL; in test [12], over 100 µg/mL; in [14] it was over 100 µg/mL. Besides, the figures for the Inhibition in test [15] and in test [16] were 10 µg/mL and under 1 µg/mL, respectively. Besides, the Ratio in test [4] and in [13] was 0 throughout.

With `Clc1cccc(C2(Cn3ccnc3)OCC(c3ccc(Cl)cc3Cl)O2)c1` (stereo unspecified), the Inhibition in test [1] is 100 µg/mL; in test [2], under 1 µg/mL; in [3], 100 µg/mL; in test [5] it was 100 µg/mL; in [6] it was 10 µg/mL; in test [7], under 1 µg/mL. Further, the Inhibition in test [8] is 100 µg/mL; in test [9] it was over 100 µg/mL; in test [10], 10 µg/mL; in test [11], 10 µg/mL; in [12], 100 µg/mL; in [14], 100 µg/mL. Further, the Inhibition in test [15] and in [16] was 100 µg/mL throughout. Also, the Ratio in test [4] and in test [13] was 0 throughout.

On to `Clc1ccccc1C1COC(Cn2ccnc2)(c2ccc(Br)cc2)O1` (stereo unspecified), for which the Inhibition is under 1 µg/mL in test [1]; 10 µg/mL in test [2]; 10 µg/mL in test [3]; 100 µg/mL in [5]; under 1 µg/mL in test [6]; under 1 µg/mL in test [7]. For the same compound, the Inhibition in test [8] was over 100 µg/mL; in [9], 100 µg/mL; in test [10], 10 µg/mL; in [11], under 1 µg/mL; in test [12] it was 100 µg/mL; in [14], under 1 µg/mL. Besides, the Inhibition in test [15] and in [16] was 100 µg/mL each time. Further, the Ratio in test [4] and in [13] was 0 throughout.

As to `Brc1ccc(C2(Cn3ccnc3)OCC(c3ccccc3)O2)cc1` (stereo unspecified), the Inhibition is under 1 µg/mL in test [1]; under 1 µg/mL in test [2]; 100 µg/mL in [3]; 100 µg/mL in [5]; under 1 µg/mL in test [6]; under 1 µg/mL in test [7]. The Inhibition in [8] is over 100 µg/mL; in [9], 100 µg/mL; in [10], 100 µg/mL; in test [11], 10 µg/mL; in test [12] it was 100 µg/mL; in test [14], 10 µg/mL. In addition, the Inhibition in test [15] and in [16] was 100 µg/mL each time. The Ratio in test [4] and in test [13] was 0 in each case.
